In assay [1] the test system is mouse intraperitoneal macrophages. The experiment in a line: Measurement of active oxygen released from mouse intraperitoneal macrophages (H2DCFDA fluorescence). The format is cell-based. Particulars: 50 μM test compound, one hour; FIG. 1. Here is the method: 3 ml of 5% thioglycolate medium (Difco, BD, code. 225640, Lot. 6192372) was administered into the abdominal cavity of a mouse (ICR mouse (SPF), 5-week-old, male). Four days after the administration, the mouse was sacrificed with the use of diethyl ether. […] This operation was repeatedly carried out two times. […] Thereafter, the number of macrophages was counted with One Cell Counter (Wakenyaku Co., Ltd.). The obtained macrophages were diluted with an RPMI-1640 medium to have any given concentration. The thus obtained mouse intraperitoneal macrophages were used in the subsequent test.
0.7 g of BSA was weighed into a large test tube. […] Subsequently, protein was quantified using Nano Drop ND-1000, and it was then diluted with sterilized PBS (−) so as to result in a final concentration of 2%. […]
After the macrophages had been washed with HBSG-BSA, they were then suspended in approximately 5 mL of HBSG-BSA, and 100 of the obtained suspension was then dispensed into each well of a 96-well Collagen Well (TC-PLATE 96 WELL, STERILE WITH LID, IND PACKED). […] One hour later, the amount of active oxygen was measured using Genios fluorescence intensity measurement apparatus.
The above-mentioned H2DCFDA is a fluorescent probe, and its fluorescence intensity is increased in the presence of hydrogen peroxide (H2O2).

The subject of a further assay is Pseudomonas aeruginosa. In kind it is in vivo.
Assay [2] relates to mouse intraperitoneal macrophages. As to the kind of experiment: Measurement of cytokine released from mouse intraperitoneal macrophages (ELISA). The format is cell-based. Particulars: 100 μM test compound, two hours. On the procedure:
Mouse intraperitoneal macrophages, a 40 mM test compound solution, and an RPMI 1640 medium were prepared in the same manner as described above.
Macrophages were added to a TC-Plate, so that they became 80% confluent. The macrophages were incubated at 37° C. for 2 hours. Thereafter, the supernatant was discarded, and the cells were then washed with 500 μl of RPMI 1640 medium. This washing operation was repeatedly carried out two times. An emulsion solution of the test compound (final concentration: 100 μM) was allowed to act on the macrophages, and two hours later, the medium was transferred into another Eppendorf tube. […] This supernatant was used as a sample, and the released cytokines were analyzed using ELISA kit (IL-6, TNF-α Quantikine Immunoassay (R & D System (trademark)).
A general note: An ELISA detects its analyte on a solid surface through an enzyme-linked reagent.

Assay [3] deals with Welch bacillus toxin (recombinant α-toxin). The following applies: in vivo, ip.
The subject of assay [4] is Welch bacillus (Type A; NTCT8237). The format is in vivo. Here is the method:
As test compounds, 1 mg each of the compound synthesized by the method described in Production Example α-1 and TDCM were weighed. Emulsion solutions of the test compounds (1 mg/ml) were prepared in the same manner as described above.
[…] of Brain Heart Infusion (BHI) (Difco) powders were dissolved in 200 ml of distilled water. 40 ml of the obtained solution (hereinafter this solution is referred to as a “BHI medium”) was withdrawn with a measuring pipette, and it was then added to a 200-ml flask, followed by performing a high-pressure steam sterilization (121° C., 20 minutes). In addition, 5 ml of the BHI medium was added to two screw-top test tubes, and they were then subjected to a high-pressure steam sterilization. Moreover, a glass tube-equipped rubber plug (with a cotton plug) and a glass tube were also subjected to a high-pressure steam sterilization. In a clean bench, an appropriate amount of bacteria for preservation, which had grown on a cooked meat medium, was collected with a sterilized Pasteur pipette, and it was then inoculated on the BHI medium in the aforementioned sterilized screw-top test tube. Subsequently, it was incubated at 37° C. overnight.
In a clean bench, bacteria that had grown in the screw-top test tube (wherein the inside of the […] in which bacteria had grown became clouded, and gas was generated) was transferred into a 200-ml Erlenmeyer flask, which contained 40 ml of BHI medium. A glass tube was inserted into the medium, so as to carry out nitrogen substitution for 10 minutes. Subsequently, the glass tube-equipped rubber plug (with a cotton plug) was equipped in the Erlenmeyer flask (since Welch bacillus generates gas, it is necessary to make an air vent), and incubation was then carried out at 37° C. for 4 to 5 hours. Thereafter, the cultured Welch bacillus was transferred into a centrifuge tube, it was then centrifuged (9000 rpm, 15 minutes), and the supernatant was then removed. 20 ml of sterilized normal saline solution was added to the precipitate, so that the bacteria were suspended therein. The suspension was centrifuged (9000 rpm, 15 minutes), and the supernatant was then removed.
Mice (ICR, 6-week-old) were divided into three groups, and the following test was then carried out.
An emulsion solution containing the test compound, an emulsion solution containing TDCM, or an emulsion solution alone, which was to be used as a control, was intraperitoneally administered in an amount of 100 μg/mouse to a group of four mice (100 μl/mouse, in the case of the emulsion solution alone). Three hours later, Welch bacillus (2.4×10^7 cells/mouse) was intraperitoneally administered to the mice. Thereafter, the condition of the mice was observed.

With `CCCCCCCCCC(CCCCCCCCC)CC(=O)OCC1O[C@H](O[C@H]2OC(COC(=O)CC(CCCCCCCCC)CCCCCCCCC)[C@@H](O)C(O)C2O)C(O)C(O)[C@@H]1O` (stereo partly drawn) [Example 9, 6,6′-bis-O-(3-nonyldodecanoyl)-α,α′-trehalose], the “action to promote the generation of active oxygen from mouse intraperitoneal macrophages, compared with TDCM” value in assay [1] is reported as “two times higher than the activity of TDCM”. Besides, in the assay with Pseudomonas aeruginosa (100 μg/mouse i.p. three hours after infection with Pseudomonas aeruginosa, FIG. 18), the “lethality of Pseudomonas aeruginosa-infected mice, post-administration” value is given as “significantly suppressed”. Also, in the assay with Pseudomonas aeruginosa (pre-administration 100 μg/mouse i.p., twenty-four hours later 3.0×10^10 CFU/mL Pseudomonas aeruginosa i.p., FIG. 17), the “lethality of Pseudomonas aeruginosa-infected mice, pre-administration” value is reported as “significantly suppressed”.
`CCCCCCCCCCC(CCCCCCCCCC)C(=O)OCC1O[C@H](O[C@H]2OC(COC(=O)C(CCCCCCCCCC)CCCCCCCCCC)[C@@H](O)C(O)C2O)C(O)C(O)[C@@H]1O` (stereo partly drawn) [Example 1, 6,6′-bis-O-(2-decyldodecanoyl)-α,α′-trehalose]: the “amount of IL-6 released from mouse intraperitoneal macrophages” value in assay [2] (vehicle approximately 15 pg/ml) is “approximately 200 pg/ml”. In addition, the “amount of TNF-α released from mouse intraperitoneal macrophages” value in assay [2] (vehicle approximately 80 pg/ml) was “approximately 1000 pg/ml”. The “action to promote the generation of active oxygen from mouse intraperitoneal macrophages, compared with TDCM” value in assay [1] is “two times higher than the activity of TDCM”. For the same compound, the “Number of surviving mice/number of treated mice, 2 hours later” value in assay [3] was 4/4; in assay [4] (100 μg/mouse i.p. three hours before Welch bacillus 2.4×10^7 cells/mouse i.p., 2 hours later), 4/4. Also, the “Number of surviving mice/number of treated mice, 6 hours later” value in assay [3] is recorded as 4/4; in assay [4] (100 μg/mouse i.p. three hours before Welch bacillus 2.4×10^7 cells/mouse i.p., 6 hours later), 4/4. Further, the “Number of surviving mice/number of treated mice, 12 hours later” value is 4/4 in assay [3] and 4/4 in assay [4] (100 μg/mouse i.p. three hours before Welch bacillus 2.4×10^7 cells/mouse i.p., 12 hours later). Also, the “Number of surviving mice/number of treated mice, 24 hours later” value in assay [3] is 3/4; in assay [4] (100 μg/mouse i.p. three hours before Welch bacillus 2.4×10^7 cells/mouse i.p., 24 hours later) it was 3/4. The “Number of surviving mice/number of treated mice, 48 hours later” value is listed as 3/4 in assay [3] and 3/4 in assay [4] (100 μg/mouse i.p. three hours before Welch bacillus 2.4×10^7 cells/mouse i.p., 48 hours later). The “mice that escaped death in Welch bacillus lethal models” value in assay [4] (100 μg/mouse i.p., text summary of Table 4) is “three out of the four mice”.

The record behind these values is patent US8741871B2, “Trehalose compound, method for producing same, and pharmaceutical product containing the compound” (priority 2008, dated 2014).
